The structures appear in SMILES notation. Where only a bound is given, the exact number is not on record here.

Turning to `O=C(Nc1cccc(Cl)c1)C1C(=O)Sc2ccc(Cl)cc21` (configuration not stated), the melting point (usually the temperature, or range, at which the solid turns liquid) was in the range of 160 to 163 °C.

Take `CCOC(=O)N(c1ccc(C(O)(C(F)(F)F)C(F)(F)F)cc1)S(C)(=O)=O`: the melting point was in the range of 108 to 112 °C.

`COc1ccc(CCc2ccc(NC(=O)C(=O)c3cccc(C(C)(C)C)c3O)cc2)cc1OC` yielded a melting point of 143 to 144 °C.

Consider `O=C1c2cccc3c(N4CCCCC4)c(Br)cc(c23)C(=O)N1O`, for which the melting point is above 250 °C.

`CCn1cc(C(=O)O)c(=O)c2cc(F)c(N3CCC(NCC(C)=O)C3)nc21` (configuration not stated) yielded a melting point of 287 to 289 °C.

In the case of `c1ccc(COc2n[nH]cc2-c2ccccc2)cc1`, the melting point amounted to 163 °C.

The compound `CC(=O)c1cc(C(=O)O)c(O)c([N+](=O)[O-])c1` yielded a melting point of 192 to 193 °C.

`CC(=O)C=CSc1ncc(Cl)cn1` came in with a melting point of 89 °C.

In turn, `Cc1cnc2c([N+](=O)[O-])cccc2c1Cl` showed a melting point of 126 °C.

As for `COc1cc(C2=C(c3cn(CCCNC(=O)C(N)CO)c4ccccc34)C(=O)NC2=O)cc(OC)c1OC` (configuration not stated), the melting point fell in the range of 112 to 114 °C.

For `NS(=O)(=O)c1ccsc1C1=CC(=O)CCC1`, the melting point was in the range of 140 to 147 °C.

Take `COc1ccc(-c2nc(S(=O)(=O)C(C)C)[nH]c2-c2ccncc2)cc1`: the melting point fell in the range of 262 to 266 °C.

As for `CCCC(=NOCC)C1=C(O)CC(c2c(C)c(C)c(O)c(C)c2C)CC1=O` (configuration not stated), the melting point stood at 134 °C.

As for `CCC(C#N)=C1CCN(c2ccc(N3C[C@H](CNC(=O)CBr)OC3=O)cc2F)CC1`, the melting point was in the range of 200 to 203 °C.

`NC1=NS(=O)N=C1NCCCOc1cccc(CN2CCCCC2)n1` (configuration not stated) had a melting point of 145 to 147 °C.

As to `COC(=O)NCCCCC1CCSS1` (configuration not stated), the melting point was in the range of 31 to 32 °C.

In the case of `N#Cc1ccc2nc(N[C@@H]3CCc4ccccc43)ccc2c1`, the melting point is 164 °C.

As to `CC1N=C(N2CCN(CCO)CC2)NN=C1c1ccccc1` (configuration not stated), the melting point is 103 to 105 °C.

The compound `C=Cc1cccc(OC)c1[N+](=O)[O-]` yielded a melting point of 55 to 56 °C.

In turn, `N#Cc1cc(Cl)ccc1Oc1cc(Br)c(F)cc1O` showed a melting point of 208 to 210 °C.

`CCc1ccc(Cc2cn(C3OC(COC(=O)c4ccccc4)C(O)C(OC(=O)c4ccccc4)C3OC(=O)c3ccccc3)c3cccc(Cl)c23)cc1` (configuration not stated) had a melting point of 192 to 193 °C.

The compound `Clc1nccc(-n2ccc3c(SCc4ccccc4)cccc32)n1` had a melting point of 159 to 161 °C.

Compound `CNC(=O)c1ccc(-c2ccc3nnn(Cc4c(F)ccc(F)c4Cl)c3n2)cc1F` returned a melting point of 213 to 215 °C.

`CC(C)c1ccc(N(Cc2ccc(N(C)C)cc2)C(=O)C2CCCc3cc(OCCO)ccc32)cc1` (configuration not stated) had a melting point of 141 °C.

Take `CC(O)c1ccc2cc(OCc3ccccc3)ccc2c1` (configuration not stated): the melting point fell in the range of 97 to 98 °C.

`CCOP(=O)(Cc1nsc2ccc(-n3c(=O)cc(C(F)(F)F)n(C)c3=O)cc12)OCC` showed a melting point of 142 to 144 °C.

On to `OC1Cc2ccccc2Sc2cc(Cl)c(Cl)cc21` (configuration not stated), for which the melting point fell in the range of 124 to 126 °C.

For `Cc1cccc(NC(=O)n2nc(Oc3cccc(C(F)(F)F)c3)cc2C)c1`, the melting point fell in the range of 47 to 49 °C.

In turn, `Nc1cc(N2CCCNCC2)nc(N)n1` had a melting point of 62 to 72 °C.

As for `N#CNC(CSCc1ccccn1)=NCCO`, the melting point was 68 to 69 °C.

`O=c1[nH]c2cc(Cl)ccc2c(O)c1-c1cccc(C#Cc2ccccc2)c1` came in with a melting point of 297 to 300 °C.

`COC(=O)C(=O)c1ccccc1Oc1cc(Oc2ccccc2C#N)ncn1` displayed a melting point of 96 to 97 °C.

`COc1cccc(CN(C)C)c1SCc1ccccc1` registered a melting point of 69 to 70 °C.

With `CC(=O)Nc1nc(Oc2ccccc2)nc2nc(-c3ccco3)nn12`, the melting point was in the range of 168 to 170 °C.

Compound `COc1ccc(C(=O)Oc2ccc(C(=O)OCc3ccccc3)c(O)c2)cc1C12CC3CC(CC(C3)C1)C2` returned a melting point of 171 to 172 °C.

On to `COc1ccc(CN(C)CCNc2ccc(NC(=O)c3cccc4c(=O)c5cccc(OC)c5[nH]c34)cc2)cc1OC`, for which the melting point came to 196 °C.

`CCOC(=O)C(C)(C)c1nsc2ccc(-n3c(=O)cc(C(F)(F)F)n(C)c3=O)cc12` gave a melting point of 164 to 167 °C.

With `CC(C)Oc1cc(/C=C/C(=O)O)n(Cc2ccc(Cl)cc2Cl)n1`, the melting point is 170 to 171 °C.

The compound `COc1c(N)cc(C2(C)CC2)cc1NS(C)(=O)=O` registered a melting point of 144 to 146 °C.

The compound `CN(C)CCC1CCCCN1CC(=O)N1c2ccccc2NC(=O)c2ccccc21` (configuration not stated) displayed a melting point of 155 to 157 °C.

`Nc1cccc2c1ccn2S(=O)(=O)c1cccc2ccccc12` registered a melting point of 133 to 134 °C.

With `Cc1cc(Br)c(C)cc1Cl`, the melting point was in the range of 60 to 64 °C.

Take `Nc1cc(Cl)c(N2CCCCC2)cc1-c1noc(=O)[nH]1`: the melting point was in the range of 186 to 189 °C.

`NC(=O)CCC(C(N)=O)c1ccc(F)cc1` (configuration not stated) gave a melting point of 154 to 157 °C.

For `O=C(NN1CCNC1=O)c1cc(=O)c(O)c[nH]1`, the melting point is 270 to 275 °C.

Compound `CN1CCC(c2c[nH]c3ccc([N+](=O)[O-])cc23)CC1` had a melting point of 200 to 202 °C.

Regarding `COC(=O)c1cc2c(nc1C)C(CO)CCCC2` (configuration not stated), the melting point lay within 55 to 56 °C.

The compound `COCc1cc(O)c2nc(C)n(C)c2c1` displayed a melting point of 219 to 220 °C.

The compound `CCCCCc1cc2c(nc(O)n2CC(C)(C)O)c(N)n1` came in with a melting point of 240 to 243 °C.

Consider `COc1cc2[nH]c(C(=O)O)cc2cc1F`, for which the melting point fell in the range of 239 to 240 °C.

For the compound `O=C(c1ccc(Br)cc1)c1ccc(O)cc1F`, the melting point was 62 to 63 °C.

The compound `O=C(Nc1ccc(C(=O)N2C[C@@H]3CCCN3S(=O)(=O)c3ccccc32)cc1)c1ccccc1-c1ccccc1` registered a melting point of 142 to 143 °C.

In the case of `O=C(O)c1cc2cc(Cl)ccc2nn1`, the melting point lay within 207 to 208 °C.

In the case of `CNC(=O)c1ccc(N2CCNCC2)cc1`, the melting point fell in the range of 154 to 156 °C.

Regarding `COC(=O)c1ccc2c(c1)c(Cc1ccc(C(=O)Cl)cc1OC)cn2C`, the melting point fell in the range of 147 to 149 °C.

As to `O=C(O)C(=O)c1ccc(OCCOc2ccc3c(c2)CCCC3)cc1`, the melting point lay within 144 to 145 °C.

With `Nc1ncnc2c1c(-c1ccc(Oc3ccccc3)cc1)c(Br)n2C1CCOC1` (configuration not stated), the melting point was 205 to 206 °C.

`Cc1cc(O)cc(C)c1NC=O` yielded a melting point of 239 °C.

`CN(C)c1cncc(I)n1` showed a melting point of 46 to 48 °C.

In turn, `CC(=Nc1c(C)cccc1C)C(C)=Nc1c(C)cccc1C` had a melting point of 78 to 86 °C.

As to `CC(C)N(CCC(CCN(C(C)C)C(C)C)(C(N)=O)c1c(Cl)cccc1Cl)C(C)C`, the melting point is 168 to 170 °C.

Consider `COC(=O)c1cc(OC)cc(-c2cccc([N+](=O)[O-])c2)n1`, for which the melting point lay in the range of 150 to 152 °C.

As to `COc1ccc(C[C@H](NC(=O)OC(C)(C)C)C(=O)c2ccc(O)cc2)cc1`, the melting point was 133 to 135 °C.

`Cc1noc(NC(=O)N2CCN(c3cc(-c4ccc(F)cc4)ncn3)CC2)c1C`: the melting point lay in the range of 207 to 208 °C.

On to `NC(=O)NC1CCC(O)c2ccccc21` (configuration not stated), for which the melting point was 170 to 176 °C.

Turning to `C[C@@H](n1cnc2cc(Cl)ccc2c1=O)[C@](O)(Cn1cncn1)c1ccccc1F`, the melting point is 124 to 129 °C.

The compound `CCOC(=O)c1ccccc1OCC(O)COc1ccc(F)cc1` (configuration not stated) displayed a melting point of 112 to 114 °C.

`Cc1c(F)c(F)c(C(=O)N[C@@H](C)C(C)C)c(F)c1F` came in with a melting point of 146 to 147 °C.

The compound `COc1cc2cc(C(=O)N3CC(CCl)c4c3cc(N(C)C)c3ccccc43)[nH]c2c(OC)c1OC` (configuration not stated) had a melting point of 174 to 175 °C.

Compound `CC(C)(C)c1ccc(C(=O)Nc2cn3cc(-c4cnco4)ccc3n2)cn1` had a melting point of 251 to 253 °C.

`Cc1cccc(-c2c(C)n(C)c(=O)n(C)c2=O)c1` yielded a melting point of 137 to 139 °C.

The compound `O=C(CN1CCCC1=O)Nc1ccc(-c2ncc(C(=O)O)c(O)n2)cc1` registered a melting point above 320 °C.

Take `C=C(c1cn(-c2c(Cl)cc(C(F)(F)F)cc2Cl)nc1C#N)C(F)(F)F`: the melting point lay within 103 to 104 °C.

Consider `NC(=O)NCc1cccc(-c2csc(N=C(N)N)n2)c1`, for which the melting point was in the range of 230 to 232 °C.

`O=C1C2CCCC2=Nc2ccccc2N1Cc1ccc(Cl)cc1` (configuration not stated) returned a melting point of 155 to 157 °C.

Compound `Cc1ccnc(C(=O)c2[nH]c3cc(Cl)ccc3c2NC(=O)CN(C)C)c1` came in with a melting point of 193 to 194 °C.

The compound `CC(=NNc1ccccc1[N+](=O)[O-])c1ccccn1` yielded a melting point of 145 to 146 °C.

In the case of `CCCCn1nnc(-c2cccc(-c3ccnc4c(C(=O)c5cccs5)cnn34)c2)n1`, the melting point is 90 °C.

Consider `C=Cc1cc(-c2cccnc2)no1`, for which the melting point was 60 to 64 °C.

Regarding `Cc1ccc(C#CC2(O)CN3CCC2CC3)nc1` (configuration not stated), the melting point lay in the range of 176 to 180 °C.

Regarding `CCOC(=O)CN(c1ccccc1)[C@H]1c2cc(C#N)ccc2OC(C)(C)[C@@H]1O`, the melting point lay in the range of 182 to 183 °C.

In turn, `Cc1cc(C)c(N2c3ccccc3S(=O)(=O)c3cc(C=O)ccc32)c(C)c1` yielded a melting point of 194 to 197 °C.

Take `O=C(NC1CCN(CCCC2=CCc3ccccc32)CC1)c1ccccc1`: the melting point lay within 157 to 159 °C.

The compound `COc1ccccc1-c1ccc2cnc(Nc3ccc(=O)[nH]c3)nn12` gave a melting point of 205 to 207 °C.

For `CCOC(=O)c1onc(O)c1C`, the melting point was 133 to 134 °C.

As to `CCCc1nc2c(c(C)c(C)n3nnnc23)n1CC(C)(C)NS(C)(=O)=O`, the melting point was in the range of 190 to 192 °C.

`COc1cc2c(cc1Nc1ncc(Cl)c(Nc3ccccc3S(=O)(=O)N(C)C)n1)CCN(CCCN1CCOCC1)C(=O)C2` returned a melting point of 78 to 87 °C.

Consider `Cc1nc2c(N)nc3ccccc3c2n1CCOCc1ccccc1`, for which the melting point was in the range of 159 to 160 °C.

`Cc1nc(-c2ccc(C(F)(F)F)cc2)sc1CN(C)c1ccc(OCC(=O)O)c(I)c1` showed a melting point of 172 to 173 °C.

Take `CCN(CC)S(=O)(=O)c1cc(Cl)cc(O)c1O`: the melting point was in the range of 62 to 64 °C.

`CCCc1cc(=O)oc2cc(OC(=O)C(C)(C)C)c3c(c12)OC(C)(C)C=C3` gave a melting point of 65 to 68 °C.

`Nc1ccccc1Sc1c(N)[nH]c(=O)[nH]c1=O` yielded a melting point above 310 °C.

Values taken from a melting point compilation (Tetko et al.; mined from patent text by program, amines drawn as free bases though some values may be those of a salt).
